Measurements from patent US10800792B2, “Inhibitors of Bruton's tyrosine kinase and method of their use” (JANSSEN PHARMACEUTICA NV, priority 2015, dated 2020).

What follows are molecules tested against unphosphorylated-BTK kinase domain (UP-BTK), GST-tagged human BTK (389-659aa) (Homo sapiens (Human), UniProt Q06187) (assay: BTK kinase Lanthascreen binding assay). Conditions: unphosphorylated-BTK kinase domain, 50 nM Tracer 236, 60 minutes; pIC50 = negative log of the IC50 in molar.
Description: BTK Kinase Lanthascreen Binding Assay:
A BTK kinase lanthascreen binding assay monitors compound binding to unphosphorylated-BTK kinase domain (UP-BTK), by competing with a fluorescent labeled tracer. […] Data were analyzed using Xlfit™ version 5.3 from ID Business Solutions (Guildford), Microsoft Excel add-in. pIC50 refers to the negative log of the IC50 in molar

unphosphorylated-BTK kinase domain (UP-BTK), GST-tagged human BTK (389-659aa), sequence (Q06187 389-659): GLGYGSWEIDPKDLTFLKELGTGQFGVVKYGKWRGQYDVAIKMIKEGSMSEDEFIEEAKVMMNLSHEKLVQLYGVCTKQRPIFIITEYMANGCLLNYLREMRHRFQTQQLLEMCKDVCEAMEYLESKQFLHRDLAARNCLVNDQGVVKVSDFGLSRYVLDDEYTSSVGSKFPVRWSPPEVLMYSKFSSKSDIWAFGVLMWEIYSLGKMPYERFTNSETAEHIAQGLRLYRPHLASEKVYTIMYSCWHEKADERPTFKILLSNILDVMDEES

Q: For `Cc1cc(Oc2ccccc2)ccc1N1C(=O)Nc2c(C(=O)N[C@@H]3CCCN(C(=O)/C(C#N)=C/C4(C)COC4)C3)sc3nccc1c23` (single isomer, unassigned) [Example 387, (R,E)-N-(1-(2-Cyano-3-(3-methyloxetan-3-yl)acryloyl)piperidin-3-yl)-5-(*R)-(2-methyl-4-phenoxyphenyl)-4-oxo-4,5-dihydro-3H-1-thia-3,5,8-triazaacenaphthylene-2-carboxamide], which “BTK_I_binding pIC50” value is on record?
A: 7.8

Q: For `Cc1cc(Oc2ccccc2)ccc1N1C(=O)Nc2c(C(=O)N[C@@H]3CCCN(C(=O)/C(C#N)=C/C(C)(C)C)C3)sc3nccc1c23` (single isomer, unassigned) [Example 398, (R,E)-N-(1-(2-Cyano-4,4-dimethylpent-2-enoyl)piperidin-3-yl)-5-(*R)-(2-methyl-4-phenoxyphenyl)-4-oxo-4,5-dihydro-3H-1-thia-3,5,8-triazaacenaphthylene-2-carboxamide], which “BTK_I_binding pIC50” value is on record?
A: 6.6

Q: `Cc1cc(Oc2ccccc2)ccc1N1C(=O)Nc2c(C(=O)N[C@H]3CCNC(C)C3)sc3nccc1c23` (single isomer, unassigned) [Example 432, 5-(*S)-(2-Methyl-4-phenoxyphenyl)-N-((4*S)-2-methylpiperidin-4-yl)-4-oxo-4,5-dihydro-3H-1-thia-3,5,8-triazaacenaphthylene-2-carboxamide] was tested. Which “BTK_I_binding pIC50” value did it give?
A: 7.0

Q: For `Cc1cc(Oc2ccccc2)ccc1N1C(=O)Nc2c(C(=O)N[C@H]3CCNC(C)C3)sc3nccc1c23` (single isomer, unassigned) [Example 433, 5-(*R)-(2-Methyl-4-phenoxyphenyl)-N-((4*S)-2-methylpiperidin-4-yl)-4-oxo-4,5-dihydro-3H-1-thia-3,5,8-triazaacenaphthylene-2-carboxamide], which “BTK_I_binding pIC50” value is on record?
A: 5.4

Q: With `Cc1cc(Oc2ccccc2)ccc1N1C(=O)Nc2c(C(=O)N[C@@H]3CCNC(C)C3)sc3nccc1c23` (single isomer, unassigned) [Example 434, 5-(*S)-(2-Methyl-4-phenoxyphenyl)-N-((4*R)-2-methylpiperidin-4-yl)-4-oxo-4,5-dihydro-3H-1-thia-3,5,8-triazaacenaphthylene-2-carboxamide] as the molecule, how does the “BTK_I_binding pIC50” value read?
A: 7.3

Q: For `Cc1cc(Oc2ccccc2)ccc1N1C(=O)Nc2c(C(=O)N[C@@H]3CCNC(C)C3)sc3nccc1c23` (single isomer, unassigned) [Example 435, 5-(*R)-(2-Methyl-4-phenoxyphenyl)-N-((4*R)-2-methylpiperidin-4-yl)-4-oxo-4,5-dihydro-3H-1-thia-3,5,8-triazaacenaphthylene-2-carboxamide], which “BTK_I_binding pIC50” value is on record?
A: 5.9

Q: How did the “BTK_I_binding pIC50” value turn out when `CC(C)=C(Cl)C(=O)N1CCC[C@@H](NC(=O)c2sc3nccc4c3c2NC(=O)N4c2ccc(Oc3ccccc3)cc2C)C1` (single isomer, unassigned) [Example 438, (R)—N-(1-(2-Chloro-3-methylbut-2-enoyl)piperidin-3-yl)-5-(*S)-(2-methyl-4-phenoxyphenyl)-4-oxo-4,5-dihydro-3H-1-thia-3,5,8-triazaacenaphthylene-2-carboxamide] was run?
A: 6.7

Q: For `CC(C)=C(Cl)C(=O)N1CCC[C@@H](NC(=O)c2sc3nccc4c3c2NC(=O)N4c2ccc(Oc3ccccc3)cc2C)C1` (single isomer, unassigned) [Example 439, (R)—N-(1-(2-Chloro-3-methylbut-2-enoyl)piperidin-3-yl)-5-(*R)-(2-methyl-4-phenoxyphenyl)-4-oxo-4,5-dihydro-3H-1-thia-3,5,8-triazaacenaphthylene-2-carboxamide], which “BTK_I_binding pIC50” value is on record?
A: 5.7

Q: `C=CC(=O)N1CC[C@@H](N(C)C(=O)c2sc3nccc4c3c2NC(=O)N4c2ccc(Oc3ccccc3)cc2C)C1` (single isomer, unassigned) [Example 441, (R)—N-(1-Acryloylpyrrolidin-3-yl)-N-methyl-5-(*S)-(2-methyl-4-phenoxyphenyl)-4-oxo-4,5-dihydro-3H-1-thia-3,5,8-triazaacenaphthylene-2-carboxamide] was tested. Which “BTK_I_binding pIC50” value did it give?
A: 5.9

Q: For `C=CC(=O)N1CC[C@@H](N(C)C(=O)c2sc3nccc4c3c2NC(=O)N4c2ccc(Oc3ccccc3)cc2C)C1` (single isomer, unassigned) [Example 442, (R)—N-(1-Acryloylpyrrolidin-3-yl)-N-methyl-5-(*R)-(2-methyl-4-phenoxyphenyl)-4-oxo-4,5-dihydro-3H-1-thia-3,5,8-triazaacenaphthylene-2-carboxamide], which “BTK_I_binding pIC50” value is on record?
A: 6.9

Q: `COC(C)(C)/C=C(\C#N)C(=O)N1CCC[C@@H](NC(=O)c2sc3nccc4c3c2NC(=O)N4c2ccc(Oc3ccccc3)cc2C)C1` (single isomer, unassigned) [Example 450, (R,*E)-N-(1-(2-Cyano-4-methoxy-4-methylpent-2-enoyl)piperidin-3-yl)-5-(*S)-(2-methyl-4-phenoxyphenyl)-4-oxo-4,5-dihydro-3H-1-thia-3,5,8-triazaacenaphthylene-2-carboxamide] was tested. Which “BTK_I_binding pIC50” value did it give?
A: 7.6

Q: For `Cc1cc(Oc2ccccc2)ccc1N1C(=O)Nc2c(C(=O)N[C@@H]3CNC(=O)C3)sc3nccc1c23` (single isomer, unassigned) [Example 469, (*S)-5-(*S)-(2-Methyl-4-phenoxyphenyl)-4-oxo-N-(5-oxopyrrolidin-3-yl)-4,5-dihydro-3H-1-thia-3,5,8-triazaacenaphthylene-2-carboxamide], which “BTK_I_binding pIC50” value is on record?
A: 7.1

Q: How did the “BTK_I_binding pIC50” value turn out when `Cc1cc(Oc2ccccc2)ccc1N1C(=O)Nc2c(C(=O)N[C@@H]3CNC(=O)C3)sc3nccc1c23` (single isomer, unassigned) [Example 470, (*S)-5-(*R)-(2-Methyl-4-phenoxyphenyl)-4-oxo-N-(5-oxopyrrolidin-3-yl)-4,5-dihydro-3H-1-thia-3,5,8-triazaacenaphthylene-2-carboxamide] was run?
A: 5.6

Q: With `Cc1cc(Oc2ccccc2)ccc1N1C(=O)Nc2c(C(=O)N[C@H]3CNC(=O)C3)sc3nccc1c23` (single isomer, unassigned) [Example 471, (*R)-5-(*S)-(2-Methyl-4-phenoxyphenyl)-4-oxo-N-(5-oxopyrrolidin-3-yl)-4,5-dihydro-3H-1-thia-3,5,8-triazaacenaphthylene-2-carboxamide] as the molecule, how does the “BTK_I_binding pIC50” value read?
A: 5.9

Q: `Cc1cc(Oc2ccccc2)ccc1N1C(=O)Nc2c(C(=O)N[C@H]3CNC(=O)C3)sc3nccc1c23` (single isomer, unassigned) [Example 472, (*R)-5-(*R)-(2-Methyl-4-phenoxyphenyl)-4-oxo-N-(5-oxopyrrolidin-3-yl)-4,5-dihydro-3H-1-thia-3,5,8-triazaacenaphthylene-2-carboxamide] was tested. Which “BTK_I_binding pIC50” value did it give?
A: 7.4

Q: How did the “BTK_I_binding pIC50” value turn out when `C/C=C/C(=O)N1CCC[C@@H](NC(=O)c2sc3nccc4c3c2NC(=O)N4c2ccc(Oc3ccccc3)cc2C)C1` (single isomer, unassigned) [Example 473, (R,*E)-N-(1-(But-2-enoyl)piperidin-3-yl)-5-(*S)-(2-methyl-4-phenoxyphenyl)-4-oxo-4,5-dihydro-3H-1-thia-3,5,8-triazaacenaphthylene-2-carboxamide] was run?
A: 5.9
